Results reported in patent US20240124408A1 (Sanofi, priority 2020, published 2024).

Key:
[1] = biological target: T1, human TRPM8 (Homo sapiens, UniProt Q7Z2W7); assay: In vitro human TRPM8 fluorescence calcium flux assay (recombinant CHO cells, Fluo4-AM, FDSS6000); format: cell-based; conditions: recombinant CHO cells expressing human TRPM8; menthol-related EC50, normalized to 100 μM menthol
T1 construct: expressed in transfected cells; host or cells: CHO (p658 mammalian expression vector)
Protocol: (§1) In Vitro Pig and Human TRPM8 Fluorescence Calcium Flux Assays
(§2) For functional expression of TRPM8, the full-length cDNA encoding human (NM_024080) and pig (XM_001927892.1) TRPM8 sequences were subcloned into p658 and pcDNA5/FRT/TO mammalian expression vectors, respectively. Engineered recombinant CHO cell lines expressing human or pig TRPM8 were generated. Culture media was Ham-F12 with 10% FCS for both lines, and for the pig cell line only 400 μg/ml hygromycin B and 30 μg/mL blasticidin were added as selection antibiotics (all reagents were obtained from Invitrogen, Fisher Scientific). Cells were grown in culture flasks up to 80% confluence where they were harvested using accutase (Sigma, MO, USA) to detach the cells by enzymatic dissociation and either seeded directly into assay plates or cryopreserved for future use.
(§3) For calcium flux assays, cells were plated into clear base poly-D-lysine coated 384-well plates (BD Biosciences, NJ USA) at a density of 15,000 cells per well in appropriate culture medium and grown overnight. The following day, all medium was removed then the cells were incubated with 2 μM of Fluo4-AM Dye (Molecular Probes) prepared in complete HBSS assay buffer containing 20 mM HEPES, 0.1% BSA, and 2.5 mM probenecid at room temperature for one hour. Following incubation, plates were inserted into a FDSS6000 instrument (Hamamatsu, Photonics, Japan) instrument, where cells were challenged with compounds of the formula (at varying concentrations) and intracellular calcium was measured kinetically for 3 min after addition.
(§4) This protocol allowed the determination of an EC50 value, from the sixteen-point dose response data, for each compound of the formula tested. Maximal fluorescence intensity achieved upon addition of 100 μM menthol (stock solution prepared in ethanol from solid, Sigma-Aldrich) was exported from the FDSS and further analyzed using IDBS XLFit 5. Data were normalized to the average 100 μM menthol response (maximum control wells) included in each plate. The dose response curves from the average of wells for each data point were analyzed by using nonlinear regression of sigmoidal dose response (formula 205). Finally, the (menthol-related) EC50 values (Half maximal effective concentration) were calculated with the best-fit dose curve determined by IDBS XLFit 5 software.

[2] = biological target: T2, pig TRPM8 (Sus scrofa, UniProt F1SM15); assay: In vitro pig TRPM8 fluorescence calcium flux assay (recombinant CHO cells, Fluo4-AM, FDSS6000); format: cell-based; conditions: recombinant CHO cells expressing pig TRPM8; menthol-related EC50, normalized to 100 μM menthol
T2 construct: expressed in transfected cells; host or cells: CHO (pcDNA5/FRT/TO vector; hygromycin B and blasticidin selection)
Protocol: as §1, §2, §3, §4

T1 sequence (Q7Z2W7 whole entry): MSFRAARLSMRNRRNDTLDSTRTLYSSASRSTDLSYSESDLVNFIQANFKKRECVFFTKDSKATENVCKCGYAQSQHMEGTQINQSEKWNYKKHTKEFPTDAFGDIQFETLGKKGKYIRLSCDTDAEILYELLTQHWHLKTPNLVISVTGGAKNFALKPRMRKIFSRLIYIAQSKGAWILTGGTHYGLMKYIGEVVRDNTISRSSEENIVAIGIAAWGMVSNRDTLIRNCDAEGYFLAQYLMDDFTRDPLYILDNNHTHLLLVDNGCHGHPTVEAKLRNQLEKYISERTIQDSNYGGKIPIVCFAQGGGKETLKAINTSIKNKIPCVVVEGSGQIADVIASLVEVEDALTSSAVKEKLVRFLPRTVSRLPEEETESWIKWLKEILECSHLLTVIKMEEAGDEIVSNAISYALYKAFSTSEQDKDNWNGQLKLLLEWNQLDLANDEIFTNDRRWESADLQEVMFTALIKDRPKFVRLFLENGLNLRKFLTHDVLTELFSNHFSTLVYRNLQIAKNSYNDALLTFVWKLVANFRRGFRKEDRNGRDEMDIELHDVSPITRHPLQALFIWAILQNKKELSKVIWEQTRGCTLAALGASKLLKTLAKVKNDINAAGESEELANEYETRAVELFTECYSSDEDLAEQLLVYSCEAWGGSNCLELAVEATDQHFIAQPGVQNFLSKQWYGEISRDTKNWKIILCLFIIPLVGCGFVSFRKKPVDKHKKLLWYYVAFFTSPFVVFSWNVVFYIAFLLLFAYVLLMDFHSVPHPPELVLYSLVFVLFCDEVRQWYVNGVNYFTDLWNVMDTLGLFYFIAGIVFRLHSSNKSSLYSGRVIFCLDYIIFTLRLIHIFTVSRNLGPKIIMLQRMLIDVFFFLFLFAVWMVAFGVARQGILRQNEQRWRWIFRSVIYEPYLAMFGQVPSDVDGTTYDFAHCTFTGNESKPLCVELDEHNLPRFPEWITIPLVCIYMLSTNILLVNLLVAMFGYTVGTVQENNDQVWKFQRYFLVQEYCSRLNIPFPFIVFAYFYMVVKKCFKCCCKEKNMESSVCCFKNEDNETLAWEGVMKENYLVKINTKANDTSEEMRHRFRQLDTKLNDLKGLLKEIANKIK
T2 sequence (F1SM15 1-1104): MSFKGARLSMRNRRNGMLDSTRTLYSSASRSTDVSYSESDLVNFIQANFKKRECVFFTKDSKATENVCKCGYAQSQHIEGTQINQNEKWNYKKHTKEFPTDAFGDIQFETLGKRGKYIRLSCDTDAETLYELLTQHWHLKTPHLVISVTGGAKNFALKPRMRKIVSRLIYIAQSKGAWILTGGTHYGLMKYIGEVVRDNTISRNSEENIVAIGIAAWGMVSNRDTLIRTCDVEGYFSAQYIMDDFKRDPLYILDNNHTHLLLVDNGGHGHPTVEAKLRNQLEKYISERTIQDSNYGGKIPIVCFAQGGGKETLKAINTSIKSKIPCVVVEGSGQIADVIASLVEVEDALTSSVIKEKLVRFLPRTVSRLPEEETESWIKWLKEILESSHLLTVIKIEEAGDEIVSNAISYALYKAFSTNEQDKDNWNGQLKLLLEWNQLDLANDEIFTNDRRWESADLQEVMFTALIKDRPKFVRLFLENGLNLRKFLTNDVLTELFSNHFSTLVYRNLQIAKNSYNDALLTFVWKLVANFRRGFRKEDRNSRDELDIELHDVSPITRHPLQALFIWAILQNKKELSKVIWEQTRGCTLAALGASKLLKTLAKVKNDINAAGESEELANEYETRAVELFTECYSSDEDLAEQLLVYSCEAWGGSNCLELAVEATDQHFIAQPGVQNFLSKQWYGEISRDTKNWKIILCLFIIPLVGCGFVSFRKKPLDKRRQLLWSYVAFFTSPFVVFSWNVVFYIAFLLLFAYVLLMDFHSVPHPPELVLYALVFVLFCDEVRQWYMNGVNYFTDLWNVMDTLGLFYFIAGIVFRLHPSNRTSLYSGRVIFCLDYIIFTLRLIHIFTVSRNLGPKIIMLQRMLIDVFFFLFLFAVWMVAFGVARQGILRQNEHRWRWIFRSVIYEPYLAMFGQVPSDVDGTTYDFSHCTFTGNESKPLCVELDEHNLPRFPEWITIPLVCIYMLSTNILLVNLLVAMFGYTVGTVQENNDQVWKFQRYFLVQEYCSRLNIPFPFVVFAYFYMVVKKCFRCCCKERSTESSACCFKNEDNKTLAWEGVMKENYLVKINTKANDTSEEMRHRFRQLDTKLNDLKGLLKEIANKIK

| SMILES | EC50 [1] | EC50 [2] |
| --- | --- | --- |
| COc1cc(CCNC(=O)[C@]2(O)C[C@H](C)CC[C@H]2C(C)C)cc(OC)c1 [Example 123, (1S,2S,5R)-N-[2-(3,5-dimethoxyphenyl)ethyl]-1-hydroxy-2-isopropyl-5-methyl-cyclohexanecarboxamide] | 334 nM | 229 nM |
| CC(C)[C@@H]1CC[C@@H](C)C[C@@]1(O)C(=O)NCC1(c2cccc(COC3CCCCO3)c2)COC1 (stereo partly drawn) [Example 101, (1S,2S,5R)-1-hydroxy-2-isopropyl-5-methyl-N-((3-(3-(((tetrahydro-2H-pyran-2-yl)oxy)methyl)phenyl)oxetan-3-yl)methyl)cyclohexane-1-carboxamide] | 376 nM | 174 nM |
| COc1ccc(C(=O)CNC(=O)[C@]2(O)C[C@H](C)CC[C@H]2C(C)C)c(OC)c1 [Example 99, (1S,2S,5R)—N-(2-(2,4-dimethoxyphenyl)-2-oxoethyl)-1-hydroxy-2-isopropyl-5-methylcyclohexane-1-carboxamide] | 110 nM | 99.1 nM |
| COC(=O)CC(CNC(=O)[C@]1(O)C[C@H](C)CC[C@H]1C(C)C)c1ccccc1 (stereo partly drawn) [Example 65, methyl 4-((1S,2S,5R)-1-hydroxy-2-isopropyl-5-methylcyclohexane-1-carboxamido)-3-phenyl butanoate] | 353 nM | 729 nM |
| CC(C)[C@@H]1CC[C@@H](C)C[C@@]1(O)C(=O)NCC1OC(=O)c2ccccc21 (mixture of isomers) [Example 18, (1S,2S,5R)-1-hydroxy-2-isopropyl-5-methyl-N-(((1RS)-3-oxo-1,3-dihydroisobenzofuran-1-yl)methyl) cyclohexane-1-carboxamide] | 757 nM | 242 nM |
| Cc1ccc(CCNC(=O)[C@]2(O)C[C@H](C)CC[C@H]2C(C)C)cc1 [Example 60, (1S,2S,5R)-1-hydroxy-2-isopropyl-5-methyl-N-(4-methylphenethyl)cyclohexane-1-carboxamide] | 43.5 nM | 7.1 nM |
| COC(=O)CCOc1ccccc1CCNC(=O)[C@]1(O)C[C@H](C)CC[C@H]1C(C)C [Example 75, methyl 3-(2-(2-((1S,2S,5R)-1-hydroxy-2-isopropyl-5-methylcyclohexane-1-carboxamido)ethyl)phenoxy)propanoate] | 84 nM | 109 nM |
| COc1cccc(CCNC(=O)[C@]2(O)C[C@H](C)CC[C@H]2C(C)C)c1OC [Example 115, (1S,2S,5R)-N-[2-(2,3-dimethoxyphenyl)ethyl]-1-hydroxy-2-isopropyl-5-methyl-cyclohexanecarboxamide] | 786 nM | 362 nM |
| CC(C)[C@@H]1CC[C@@H](C)C[C@@]1(O)C(=O)NCC(O)(c1ccccc1)C(F)(F)F (single isomer, unassigned) [Example 82] | 332 nM | 486 nM |
| CC(C)[C@@H]1CC[C@@H](C)C[C@@]1(O)C(=O)N[C@H]1COc2ccccc2C1 [Example 95, (1S,2S,5R)—N-((3R)-chroman-3-yl)-1-hydroxy-2-isopropyl-5-methylcyclohexane-1-carboxamide] | 3.6 nM | 3.1 nM |
| Cc1cccc([C@H](O)CNC(=O)[C@]2(O)C[C@H](C)CC[C@H]2C(C)C)c1 [Example 46, (1S,2S,5R)-1-hydroxy-N-((2S)-hydroxy-2-(m-tolyl)ethyl)-2-isopropyl-5-methylcyclohexane-1-carboxamide] | 11.9 nM | 4.6 nM |
| [2H]C(O)(CNC(=O)[C@]1(O)C[C@H](C)CC[C@H]1C(C)C)c1ccccc1 (single isomer, unassigned) [Example 91] | 19 nM | 5.2 nM |

Further lines, results first:

| EC50 [1] | EC50 [2] | SMILES |
| --- | --- | --- |
| 92.5 nM | 25.7 nM | COc1ccc(CCNC(=O)[C@]2(O)C[C@H](C)CC[C@H]2C(C)C)cc1O [Example 126, (1S,2S,5R)-1-hydroxy-N-[2-(3-hydroxy-4-methoxy-phenyl)ethyl]-2-isopropyl-5-methyl-cyclohexanecarboxamide] |
| 5.3 nM | 1.7 nM | CC(C)[C@@H]1CC[C@@H](C)C[C@@]1(O)C(=O)NCC(=O)c1cc(F)ccc1F [Example 139, (1S,2S,5R)-N-[2-(2,5-difluorophenyl)-2-oxo-ethyl]-1-hydroxy-2-isopropyl-5-methyl-cyclohexanecarboxamide] |
| 3.2 nM | 6.1 nM | CC(C)[C@@H]1CC[C@@H](C)C[C@@]1(O)C(=O)N[C@@H]1CCc2ccc(O)cc2C1 [Example 171, (1S,2S,5R)-1-hydroxy-N-[(2R)-7-hydroxytetralin-2-yl]-2-isopropyl-5-methyl-cyclohexanecarboxamide] |
| 130 nM | 76 nM | Cc1[nH]c2ccccc2c1CCNC(=O)[C@]1(O)C[C@H](C)CC[C@H]1C(C)C [Example 153, (1S,2S,5R)-1-hydroxy-2-isopropyl-5-methyl-N-[2-(2-methyl-1H-indol-3-yl)ethyl]cyclohexanecarboxamide] |
| 1260 nM | 358 nM | CC(C)[C@@H]1CC[C@@H](C)C[C@@]1(O)C(=O)NC[C@H](O)c1ccccc1 [Example 178, (1S,2S,5R)-1-hydroxy-N-((2R)-2-hydroxy-2-phenylethyl)-2-isopropyl-5-methylcyclohexane-1-carboxamide] |
| 4 nM | 4 nM | CC(C)[C@@H]1CC[C@@H](C)C[C@@]1(O)C(=O)NCC(=O)c1c[nH]c2ccccc12 [Example 150, (1S,2S,5R)-1-hydroxy-N-[2-(1H-indol-3-yl)-2-oxo-ethyl]-2-isopropyl-5-methyl-cyclohexanecarboxamide] |
| 16.6 nM | 15.2 nM | CC(C)[C@@H]1CC[C@@H](C)C[C@@]1(O)C(=O)NCCc1ccc(O)c([N+](=O)[O-])c1 [Example 166, (1S,2S,5R)-1-hydroxy-N-[2-(4-hydroxy-3-nitro-phenyl)ethyl]-2-isopropyl-5-methyl-cyclohexanecarboxamide] |
| 9.4 nM | 3.3 nM | CC(C)[C@@H]1CC[C@@H](C)C[C@@]1(O)C(=O)NCC(=O)c1ccccc1Cl [Example 140, (1S,2S,5R)-N-[2-(2-chlorophenyl)-2-oxo-ethyl]-1-hydroxy-2-isopropyl-5-methyl-cyclohexanecarboxamide] |
| 4.8 nM | 1.8 nM | CC(C)[C@@H]1CC[C@@H](C)C[C@@]1(O)C(=O)NCC1(O)CCc2c(Cl)cccc21 (stereo partly drawn) [Example 144, (1S,2S,5R)-N-[(4-chloro-1-hydroxy-indan-1-yl)methyl]-1-hydroxy-2-isopropyl-5-methyl-cyclohexanecarboxamide] |
| 22.5 nM | 61.4 nM | CC(C)[C@@H]1CC[C@@H](C)C[C@@]1(O)C(=O)NCC(NC(=O)[C@H](C)N)c1ccccc1 (single isomer, unassigned) [Example 181] |
| 334 nM | 343 nM | CC(C)[C@@H]1CC[C@@H](C)C[C@@]1(O)C(=O)N[C@@H](C)CCc1ccc(O)cc1 [Example 168, (1S,2S,5R)-1-hydroxy-N-[(1S)-3-(4-hydroxyphenyl)-1-methyl-propyl]-2-isopropyl-5-methyl-cyclohexanecarboxamide] |
| 1160 nM | 901 nM | CC(C)[C@@H]1CC[C@@H](C)C[C@@]1(O)C(=O)NC1CCC(F)(F)CC1 [Example 147, (1S,2S,5R)-N-(4,4-difluorocyclohexyl)-1-hydroxy-2-isopropyl-5-methyl-cyclohexanecarboxamide] |
| 3.6 nM | 3.4 nM | CC(C)[C@@H]1CC[C@@H](C)C[C@@]1(O)C(=O)NCC1(O)CCCc2ccccc21 (mixture of isomers) [Example 177, (1S,2S,5R)-1-hydroxy-N-(((1RS)-hydroxy-1,2,3,4-tetrahydronaphthalen-1-yl)methyl)-2-isopropyl-5-methylcyclohexane-1-carboxamide] |
| 330 nM | 369 nM | CC(C)[C@@H]1CC[C@@H](C)C[C@@]1(O)C(=O)NCc1cccc(O)c1 [Example 165, (1S,2S,5R)-1-hydroxy-N-[(3-hydroxyphenyl)methyl]-2-isopropyl-5-methyl-cyclohexanecarboxamide] |
| 8.4 nM | 4.7 nM | CC(C)[C@@H]1CC[C@@H](C)C[C@@]1(O)C(=O)NCC(O)c1ccccc1F (stereo partly drawn) [Example 157, (1S,2S,5R)-N-[2-(2-fluorophenyl)-2-hydroxy-ethyl]-1-hydroxy-2-isopropyl-5-methyl-cyclohexanecarboxamide] |
